Legend:
[1] = molecular target: T1, Human C5 (Homo sapiens, UniProt P01031); assay: Surface plasmon resonance (SPR), compounds on immobilized human C5 (Example 2, Table 5); format: binding; details: lowest value where a range of compound concentrations were analyzed
T1 construct: purchased Complement Technology

[2] = molecular target: T2, purified human C5 (Homo sapiens, UniProt P01031); assay: Red blood cell hemolysis assay, optical, absorbance 412 nm (Example 3, Table 6); format: cell-based; details: antibody-sensitized sheep erythrocytes, 1.5% human C5 depleted sera, 0.5 nM human C5; average where replicates
[3] = molecular target: T2, purified human C5; assay: Red blood cell (RBC) hemolysis assay, optical, absorbance 412 nm (Example 10, Table 19); format: cell-based; details: antibody-sensitized sheep erythrocytes, […] human C5 depleted sera
[4] = molecular target: T1, Human C5; assay: Surface plasmon resonance (SPR), immobilized human C5 (Example 9, Table 18); format: binding
Excerpt: Morrison and Boyd in “Organic Chemistry”, 6th edition, Prentice Hall (1992)] and validated for proper structure by mass spectrometry.

[5] = 0.5 nM purified human C5, absorbance 412 nm, read-out: RBC Hemolysis IC50
[6] = immobilized human C5, equilibrium dissociation constant, read-out: SPR C5 EQ KD

T2 sequence (P01031 19-1676): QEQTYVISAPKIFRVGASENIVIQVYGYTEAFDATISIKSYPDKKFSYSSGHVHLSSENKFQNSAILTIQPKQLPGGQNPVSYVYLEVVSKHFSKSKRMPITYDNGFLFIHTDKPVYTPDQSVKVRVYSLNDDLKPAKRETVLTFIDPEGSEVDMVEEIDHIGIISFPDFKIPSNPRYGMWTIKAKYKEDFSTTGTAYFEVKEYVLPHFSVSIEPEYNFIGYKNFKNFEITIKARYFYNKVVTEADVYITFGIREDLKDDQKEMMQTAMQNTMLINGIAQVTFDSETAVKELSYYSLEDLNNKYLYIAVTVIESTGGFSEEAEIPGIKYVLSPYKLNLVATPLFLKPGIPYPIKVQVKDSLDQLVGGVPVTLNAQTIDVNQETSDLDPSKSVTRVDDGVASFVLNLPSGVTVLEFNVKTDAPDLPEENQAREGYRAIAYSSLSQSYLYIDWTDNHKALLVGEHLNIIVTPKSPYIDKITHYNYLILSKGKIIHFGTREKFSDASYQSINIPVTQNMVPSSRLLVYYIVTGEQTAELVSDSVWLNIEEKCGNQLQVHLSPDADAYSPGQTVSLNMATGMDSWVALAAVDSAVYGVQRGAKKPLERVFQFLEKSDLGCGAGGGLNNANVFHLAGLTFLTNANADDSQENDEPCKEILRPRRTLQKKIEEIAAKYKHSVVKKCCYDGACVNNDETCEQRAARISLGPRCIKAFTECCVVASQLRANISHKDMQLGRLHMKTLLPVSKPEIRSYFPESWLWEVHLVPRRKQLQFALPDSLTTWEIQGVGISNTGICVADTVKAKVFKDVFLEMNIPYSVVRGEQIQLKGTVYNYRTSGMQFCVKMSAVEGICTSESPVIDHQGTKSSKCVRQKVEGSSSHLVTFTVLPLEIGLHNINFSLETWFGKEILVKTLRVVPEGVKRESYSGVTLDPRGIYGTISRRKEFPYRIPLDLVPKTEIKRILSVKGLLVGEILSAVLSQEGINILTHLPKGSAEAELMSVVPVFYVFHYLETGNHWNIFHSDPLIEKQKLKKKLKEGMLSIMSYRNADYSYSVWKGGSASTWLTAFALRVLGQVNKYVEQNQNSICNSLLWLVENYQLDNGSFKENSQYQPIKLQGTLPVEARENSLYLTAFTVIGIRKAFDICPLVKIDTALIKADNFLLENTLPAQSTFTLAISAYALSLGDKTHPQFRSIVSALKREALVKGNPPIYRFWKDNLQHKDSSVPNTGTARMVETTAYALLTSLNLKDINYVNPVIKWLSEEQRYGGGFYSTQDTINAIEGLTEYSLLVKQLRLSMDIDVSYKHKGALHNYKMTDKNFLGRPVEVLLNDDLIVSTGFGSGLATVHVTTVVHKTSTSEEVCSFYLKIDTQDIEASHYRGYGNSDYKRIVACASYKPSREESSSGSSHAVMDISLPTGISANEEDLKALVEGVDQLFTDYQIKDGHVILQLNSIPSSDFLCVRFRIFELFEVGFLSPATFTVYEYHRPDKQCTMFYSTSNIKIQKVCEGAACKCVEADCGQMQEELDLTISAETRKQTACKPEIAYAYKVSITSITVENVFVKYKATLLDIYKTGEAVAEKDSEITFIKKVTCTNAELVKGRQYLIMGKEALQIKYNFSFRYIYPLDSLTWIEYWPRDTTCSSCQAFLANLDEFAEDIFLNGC
T1 sequence (P01031 19-1676): as above

| SMILES | Kd [1] | IC50 [2] | other results |
| --- | --- | --- | --- |
| COc1ncc(NC(=O)N[C@@H](CO)c2ccccc2)cc1OCCCC(C)C [SM0042] | 6400 nM | 2130 nM |  |
| COC[C@H](NC(=O)Nc1ccc(OC)c(OCCCC(C)C)c1)c1ccccc1 [SM0120] | 9500 nM |  |  |
| COc1ccc(NC(=O)NCc2ccccc2CO)cc1OCCCC(C)C [SM0050] | 102 nM | 2870 nM |  |
| COc1ccc(NC(=O)N[C@@H](CO)c2ccccc2)cc1OCCOC1CCC1 [SM0053] | 3350 nM | 3380 nM |  |
| COc1ccc(NC(=O)NCc2ccccc2C#N)cc1OCCCC(C)C [SM0067] | 172 nM | 7360 nM |  |
| COc1ccc(NC(=O)NC(CO)c2cccc(F)c2)cc1OCCCC(C)C (stereo not shown) [SM0018] | 114 nM | 420 nM |  |
| COc1ccc(NC(=O)NCc2ccccc2O)cc1OCCCC(C)C [SM0004] | 28 nM | 42.6 nM |  |
| COc1ccc(NC(=O)NCC(O)c2ccc(O)cc2)cc1OCCCC(C)C (stereo not shown) [SM0074] | 3600 nM | 9360 nM |  |
| COc1ccc(NC(=O)NC(CO)c2ccccc2C)cc1OCCCC(C)C (stereo not shown) [SM0036] | 4300 nM | 1240 nM |  |
| COc1ccc(NC(=O)NCc2cccc3ncccc23)cc1OCCCC(C)C [SM0044] | 74 nM | 2180 nM |  |
| COc1ccc(NC(=O)NCc2ccc(CN(C)C)cc2)cc1OCCCC(C)C [SM0043] | 1930 nM | 2140 nM |  |
| COc1ccc(NC(=O)N[C@@H](COC(N)=O)c2ccccc2)cc1OCCCC(C)C [SM0068, (R)-2-(3-(4-methoxy-3-((4-methylpentyl)oxyureido)-2-phenylethyl carbamate] | 2600 nM | 7360 nM |  |
| COc1ccc(NC(=O)N[C@@H](CO)c2ccccc2)cc1OCCOC(C)C [SM0083] | 6400 nM | 15400 nM |  |
| COc1ccc(NC(=O)N[C@@H]2c3ccccc3C[C@@H]2O)cc1OCCCC(C)C [SM0066] | 290 nM | 6870 nM |  |
| CCCCCCOc1ccc(NC(=O)N[C@@H](CO)c2ccccc2)cc1 [SM0112] | 5500 nM |  |  |
| COc1ccc(NC(=O)N[C@@H](CO)c2ccccc2)cc1Br [SM0060] |  | 4470 nM |  |
| COc1ccc(NC(=O)N[C@@H](CO)c2ccccc2)cc1OCc1ccccc1 [SM0088] |  | 18400 nM |  |
| COc1ccc(NC(=O)NC(CO)c2ccc(F)cc2)cc1OCCCC(C)C (stereo not shown) [SM0020] |  | 478 nM |  |
| COCCCOc1cc(NC(=O)N[C@@H](CO)c2ccccc2)ccc1OC [SM0084] | 310 nM | 16100 nM |  |
| COc1ccc(NC(=O)NCc2cccs2)cc1OCCCC(C)C [SM0052] | 564 nM | 3100 nM |  |
| COc1ccc(NC(=O)NCc2ccncc2)cc1C#CCCC(C)C [SM0046] | 8600 nM | 2240 nM |  |
| COc1ccc(NC(=O)NC(c2ccccc2F)C(C)O)cc1OCCCC(C)C (stereo not shown) [SM0082] |  | 14500 nM |  |
| COc1ccc(NC(=O)NC(c2ccccc2F)[C@@H](O)CO)cc1OCCCC(C)C (stereo partly shown) [SM0106] | 2700 nM |  |  |
| COc1ccc(NC(=O)NCc2ccc3ccccc3n2)cc1OCCCC(C)C [SM0086] |  | 16600 nM |  |
| COc1ccc(NC(=O)N[C@@H](CO)c2ccccc2)cc1OCCN(C)C [SM0105, 1-[3-[2-(dimethylamino)ethoxy]-4-methoxy-phenyl]-3-[(1R)-2-hydroxy-1-phenyl-ethyl]urea] | 2600 nM |  |  |
| COc1ccc(NC(=O)N(C)CCO)cc1OCCCC(C)C [SM0109] | 3800 nM |  |  |
| COc1ccc(NC(=O)NCc2ccccc2CN(C)C)cc1OCCCC(C)C [SM0100] | 120 nM |  |  |

| SMILES | Kd [1] | IC50 [2] | other results |
| --- | --- | --- | --- |
| COc1ccc(NC(=O)NCc2cccc(S(C)(=O)=O)c2)cc1OCCCC(C)C [SM0079] |  | 12700 nM |  |
| COc1ccc(NC(=O)N[C@@H](CO)C(C)(C)C)cc1OCCCC(C)C [SM0091] | 990 nM |  |  |
| COc1ccc(NC(=O)N[C@@H](CO)c2ccccc2)cc1OCC(F)(F)F [SM0085] |  | 16100 nM |  |
| COc1ccc(NC(=O)NCc2ccc(S(C)(=O)=O)cc2)cc1OCCCC(C)C [SM0113] | 601 nM |  |  |
| COc1ccc(NC(=O)N[C@@H](CO)c2ccccc2)cc1OCc1ccncc1 [SM0098] | 3800 nM |  |  |
| COc1ccc(NC(=O)NCCc2ccccc2)cc1OCCCC(C)C [SM0117] | 7600 nM |  |  |
| COc1ccc(NC(=O)NC(CO)c2cnn(C)c2)cc1OCCCC(C)C (stereo not shown) [SM0055] |  | 3450 nM |  |
| CCCCN(C)C(=O)c1cccc(NC(=O)N[C@@H](CO)c2ccccc2)c1 [SM0116, N-butyl-3-[[(1R)-2-hydroxy-1-phenyl-ethyl]carbamoylamino]-N-methyl-benzamide] | 690 nM |  |  |
| CCCOc1cc(NC(=O)O[C@@H](C)c2ccccc2)ccc1OC [SM0110] | 3900 nM |  |  |
| COc1ccc(NC(=O)N[C@@H](CO)c2ccccc2)cc1OCCCCl [SM0051] |  | 3060 nM |  |
| COc1ccc(NC(=O)NC(CO)Cc2ccccc2)cc1OCCCC(C)C (stereo not shown) [SM0092] | 540 nM |  |  |
| COc1ccc(NC(=O)N[C@@H](C(N)=O)c2ccccc2)cc1OCCCC(C)C [SM0102] | 1700 nM |  |  |
| COc1ccc(NC(=O)N[C@@H](CO)c2ccccc2)cc1OCCN1CCN(C)CC1 [SM0115] | 6700 nM |  |  |
| COc1ccc(CNC(=O)Nc2ccc(OC)c(OCCCC(C)C)c2)cc1 [SM0041] |  | 1800 nM |  |
| COc1ccc(NC(=O)NCc2ccc(Br)cc2)cc1OCCCC(C)C [SM0089] | 3100 nM |  |  |
| COc1ccc(NC(=O)NC(CO)c2cccc3[nH]ncc23)cc1OCCCC(C)C (stereo not shown) [Compound C5INH-0366] |  |  | IC50 [3, 5]: 762 nM; Kd [4, 6]: 82 nM |
| COc1cc(CC(=O)O)c(NC(=O)N[C@H](CO)c2ccccc2)cc1OCCCC(C)C [Compound C5INH-0355] |  |  | IC50 [3, 5]: 2930 nM; Kd [4, 6]: 441 nM |
| CNC(=O)[C@H](NC(=O)Nc1ccc(OC)c(OCCCC(C)C)c1)c1ccccc1 [SM0093] | 240 nM |  |  |
| COc1cccc(C(CO)NC(=O)Nc2ccc(OC)c(OCCCC(C)C)c2)c1 (stereo not shown) [SM0028] |  | 896 nM |  |
| COc1ccc(NC(=O)N[C@@H](CO)c2ccccc2)cc1OCCC1CC1 [SM0101] | 150 nM |  |  |
| COc1ccc(NCCCN2CCOCC2)cc1CNC(=O)Nc1ccc(OC)c(OCCCC(C)C)c1 [Compound C5INH-0534] |  |  | IC50 [3, 5]: 1110 nM; Kd [4, 6]: 260 nM |
| COc1ccc(NC(=O)NCc2ccnc3c2ccn3CC2=NCCCN2)cc1OCCCC(C)C [Compound C5INH-0474] |  |  | IC50 [3, 5]: 120 nM; Kd [4, 6]: 201 nM |
| COc1ccc(NC(=O)NCc2ccnc3c2ccn3CC(=O)N2CCN(C)CC2)cc1OCCCC(C)C [Compound C5INH-0526] |  |  | IC50 [3, 5]: 31.5 nM; Kd [4, 6]: 27 nM |
| COc1ccc(NC(=O)N[C@@H](CO)c2ccccc2O)cc1OCCCC(C)C [Compound C5INH-0395] |  |  | IC50 ([3]; 0.5 nM human C5, read-out: IC50): < 20 nM; IC50 [3, 5]: 13.6 nM; Kd ([4]; SPR, human C5 immobilized, read-out: equilibrium dissociation constant for interaction with C5): < 20 nM; Kd [4, 6]: 9 nM |
| COc1ccc(NC(=O)NC(CO)c2cccc3[nH]ccc23)cc1OCCCC(C)C (stereo not shown) [Compound C5INH-0356] |  |  | IC50 [3, 5]: 111 nM; Kd [4, 6]: 59 nM |
| COc1ccc(NC(=O)NCc2ccnc(N)c2OC)cc1OCCCC(C)C [Compound C5INH-0454] |  |  | IC50 [3, 5]: 301 nM; Kd [4, 6]: 284 nM |
| COc1ccc(NC(=O)N[C@@H](C)c2ccccc2)cc1OCC(C)(C)N(C)C [SM0107] | 3200 nM |  |  |

The next lines start with results.

| Kd [1] | SMILES | IC50 [2] | other results |
| --- | --- | --- | --- |
| 4700 nM | COc1ccc(NC(=O)NCC2CCC(F)(F)CC2)cc1OCCCC(C)C [SM0111] |  |  |
| 647 nM | COc1ccc(NC(=O)N[C@@H](C)c2ccccc2)cc1OCCCC(C)C [SM0009] | 198 nM |  |
| 5700 nM | O=C(Nc1ccc2c(c1)OC(F)(F)O2)N[C@@H](CO)c1ccccc1 [SM0099] |  |  |
| 6370 nM | COc1ccc(NC(=O)NCc2cccc(CN(C)C)c2)cc1OCCCC(C)C [SM0063] | 6140 nM |  |
| 9500 nM | COc1ccc(NC(=O)NC(CN(C)C)c2ccccc2)cc1OCCCC(C)C (stereo not shown) [SM0121] |  |  |
| 111 nM | COc1ccc(NC(=O)NCc2ccc(O)cc2)cc1OCCCC(C)C [SM0017] | 401 nM |  |
| 380 nM | COc1ccc(NC(=O)N[C@@H](CO)c2ccccc2)cc1OCCN1CCC(O)CC1 [SM0094] |  |  |
| 2100 nM | CCCCn1ncc2ccc(NC(=O)N[C@@H](CO)c3ccccc3)cc21 [SM0096, 1-(1-butylindazol-6-yl)-3-[(1R)-2-hydroxy-1-phenyl-ethyl]urea] |  |  |
| 90 nM | COc1ccc(NC(=O)NCc2ccccc2OC)cc1CCCCC(C)C [SM0007] | 165 nM |  |
| 830 nM | COc1ccc(NC(=O)N[C@@H](CO)c2ccccc2)cc1OCCCC#N [SM0119] |  |  |
| 1800 nM | COc1ccc(NC(=O)N[C@H]2c3ccccc3C[C@@H]2O)cc1OCCCC(C)C [SM0103] |  |  |
| 3200 nM | COc1ccc(NC(=O)N[C@@H](C)c2ccc(Br)cc2)cc1OCCCC(C)C [SM0108] |  |  |
| 3900 nM | C=C(NC(=O)Nc1ccc(OC)c(OCCCC(C)C)c1)c1ccccc1 [SM0061] | 4990 nM |  |
| 1600 nM | COc1ccc(NC(=O)NCC(O)c2ccccc2)cc1OCCCC(C)C (stereo not shown) [SM0081] | 13000 nM |  |
| 4100 nM | COc1ccc(NC(=O)NCc2cccnc2)cc1OCCCC(C)C [SM0049] | 2790 nM |  |
| 8200 nM | COc1ccc(NC(=O)N[C@@H](CO)c2ccccc2)cc1OCCC(C)C [SM0072] | 8680 nM |  |
| 6400 nM | COc1ccc(NC(=O)N[C@@H](CO)c2ccccc2)cc1OCc1cncnc1 [SM0114, 1-[(1R)-2-hydroxy-1-phenyl-ethyl]-3-[4-methoxy-3-(pyrimidin-5-ylmethoxy)phenyl] urea] |  |  |
| 1600 nM | COc1ccc(NC(=O)N[C@@H](CO)c2ccccc2)cc1OCc1ccccn1 [SM0095] |  |  |
| 2100 nM | COc1ccc(NC(=O)NCc2cncnc2)cc1OCCCC(C)C [SM0090] |  |  |
| 8100 nM | COc1ccc(NC(=O)N[C@H](CCO)c2ccccc2)cc1OCCCC(C)C [SM0118] |  |  |
| 2200 nM | COc1ccc(NC(=O)NC2CCCCC2O)cc1OCCCC(C)C (stereo not shown) [SM0097] |  |  |

— patent US20230115176A1 (Ra Pharmaceuticals, Inc., priority 2019, published 2023)
